Experimental data: patent US6447768B1, “Methods of gene therapy with a DNA sequence encoding NOS” (priority 1998, dated 2002)

System: Human foreskin microvascular endothelial cells (MVEC)
Experiment: Angiogenesis assay: capillary-like tube formation of MVEC in fibrin matrix
Type: cell-based
Settings: for formation of capillary-like structures in fibrin matrices: uninfected MVEC, in combination with TNF-α
Protocol: Human foreskin microvascular endothelial cells (MVEC) were grown to confluency in M199 medium supplemented with 10% human serum (HS), 10% new-born calf serum (NBCS), penicillin and streptomycin and infected with 3.10_ pfu/ml Ad.IG.CMV.eNOS for 1 hour in M199 +2% NBCS. Medium was refreshed and cells were incubated overnight in M199+10% HS+10% NBCS.
Angiogenesis was analysed as described in Koolwijk et al. J. Cell Biol. 132 p1177-1188 (1996). Briefly, highly confluent MVEC were detached, seeded in a 1.25:1 split ratio on human fibrin matrices as cultures consisting either of uninfected cells, 100% infected cells or mixed cultures consisting of 10% infected/90% uninfected cells and cultured in M199 medium supplemented with 10% human serum (HS), 10% new-born calf serum (NBCS), penicillin and streptomycin.
Invading cells and the formation of tubular structures of endothelial cells in the three-dimensional fibrin matrix were analysed by phase contrast microscopy. After 7 days the total length of the tube-like structure of six randomly chosen microscopic fields per well (7.3 mm^2/field=43.8% of the total well) was measured using a Nikon FXA microscope equipped with a monochrome CCD camera (MX5) connected to a computer with Optimas image analysis software, and expressed as total tube length/cm^2.
For the angiogenesis experiments incubations are performed with cultures of uninfected cells, 10% infected MVEC and of 100% infected MVEC.
All incubations have been performed in the presence of 1 ng/ml TNF-α. Specific conditions tested in the presence and absence of virus were control, +bFGF: 5 ng/ml, +VEGF: 25 ng/ml, +bFGF+L-NAME: 5 ng/ml, 100 iM

Molecule	effect on tube formation (100 μM, bFGF+TNF-α stimulated cultures, with and without NOS infected cells)	formation of capillary-like structures in fibrin matrices
COC(=O)[C@@H](N)CCCNC(=N)N[N+](=O)[O-] [L-NAME]	small reduction of tube formation	–
VEGF	–	formed capillary-like structures
bFGF: basic Fibroblast Growth Factor	–	formed capillary-like structures
